Experimental data: patent US20240335431A1, “1-H-PYRROLO[2,3-c]PYRIDINE COMPOUNDS” (Acerta Pharma B.V., priority 2023, published 2024)
Like-named read-outs stand apart in the source and are kept apart here.

Experiments:
[1] = system: OCI-AML3 cells; test: Proliferation assay, OCI-AML3 (CellTiter-Glo, 7 days); format: cell-based, human; settings: Homo sapiens, OCI-AML-3, 168 h
Protocol: (§1) The anti-proliferative effect of compounds was tested in human leukaemia cell lines. The cell lines […] and MV4; 11 each harbor an MLL translocation expressing the MLL fusion proteins MLL-AF9 and MLL-AF4, respectively. Each also express the wildtype protein from the second allele. OCI-AML3 cells carrying the NPM1c gene mutation were also tested.
(§2) MOLM-13 and HEL cells were cultured in RPMI 1640 (Gibco) supplemented with 10% FBS (Gibco) and 1% Pen/Strep (Gibco). MV4; 11 cells were cultured in IMDM (Gibco) supplemented with 10% FBS (Gibco) and 1% Pen/Strep (Gibco). OCI-AML3 cells were cultured in MEMa (Gibco) supplemented with 20% FBS (Gibco) and 1% Pen/Strep (Gibco).
(§3) To assess proliferative effects, 125 MOLM-13 cells, 300 MV4; 11 cells, 75 OCI-AML3 cells, and 200 HEL cells were seeded in 40 μL media per well in 384-well ViewPlates (Perkin Elmer, 6007480). Cell seeding numbers were chosen based on growth curves to ensure linear growth throughout the experiments. Test compounds were added at 3.16-fold serial dilutions in DMSO from […] and DMSO content was normalized to 0.1%. Cells were incubated for 7 days at 37° C. and 5% CO2. A day 0 plate was seeded for each cell line and used as a standard control.
(§4) To measure cell viability, CellTiter-Glo 2.0 (Promega, G9242) luminescent growth indicator was used. 10 μL CellTiter-Glo reagent was added per well. Plates were placed on a plate shaker for 2 minutes in the dark and left to incubate off the shaker for another 8 minutes in the dark, for a total of 10 minutes. Plates were read using an EnVision plate reader (Perkin Elmer) using the Luminescence aperture and a measurement time of 0.1 second.
(§5) Data were analyzed in Genedata Screener®. IC50 values were determined by plotting % inhibition versus log compound concentration and using a one site dose response model. Raw data signals were normalized using 0.1% DMSO media only as background control, 0.1% DMSO with cells no compound as 100% viability (maximum signal), and day 0 0.1% DM with cells no compound as 0% viability (minimum signal).

[2] = Human liver microsomes (HLMs) intrinsic clearance assay; format: in vitro ADME; settings: for microsomal CLint at 1 µM: human, microsomes, pH 7.4, HLM CLint
Protocol: Human liver microsomes (HLMs) were obtained from Corning (UltraPool 150 donors) at a concentration of 20 mg/mL protein. HLMs were stored at −80° C. until use and prior to use, thawed in a 37° C. water bath and then stored on wet ice. DMSO and NADPH were sourced from Solarbio S&T Co Ltd.
2 mL of 10 mM DMSO stock solutions of test compound were added to 198 mL acetonitrile to produce […] concentration. 1325 mL of 20 mg/mL HLM were added to 22260 mL of phosphate buffer to produce the HLM mixture. An 8.334 mg/mL solution of NADPH was prepared in 100 mmol/L pH 7.4 phosphate buffer.
222.5 mL of the HLM mixture and 25 mL of the 10 mM NADPH were added into the incubation plates (1 mL 96 well deep well plate from Thermo). The mixture was vortexed for 10 seconds at 1000 rpm. The incubation plate was pre-warmed in a water bath at 37° C. for 8 minutes. 2.5 mL of the […] stocks of test compound was added to initiate the reaction. The mix was vortexed for 12 seconds at 1000 rpm and incubated at 37° C. The incubation mixture (250 mL) contained 1 mg/mL HLM, 1 mmol/L NADPH and […].
The reaction was quenched by transferring 20 mL of the incubation mixture at 0.5, 5, 10, 15, 20 and 30 minutes into the quenching plate containing 100 mL of cold stop solution (acetonitrile containing internal standards). The plate was vortexed at 800 rpm for 2 minutes.
The quenching plates were centrifuged for 20 minutes at 4000 rpm and 4° C. 40 mL of the supernatant was transferred into a 96-well analysis plate containing 160 mL of water. The analysis plate was shaken at 1000 rpm for 2 minutes and the samples analysed by LC-MS/MS.
Peak areas were determined from extracted ion chromatograms. Percent parent remaining was calculated from peak area of test compound. The slope value, k, was determined by linear regression of the natural logarithm of percent parent remaining versus incubation time. The in vitro half-life (t1/2) was determined from the slope value by the equation: […]
Conversion of the in vitro half-life (min) into in vitro CLint (mL/min/mg proteins) was completed using the equation: […]

[3] = system: MV4;11 cells; test: Proliferation assay, MV4;11 (CellTiter-Glo, 7 days); format: cell-based, human; settings: read-out: MV-4-11 IC50
Protocol: as §1, §2, §3, §4, §5

[4] = system: HEL cells; test: Proliferation assay, HEL control cell line (CellTiter-Glo, 7 days); format: cell-based, human; settings: Homo sapiens, HEL, 168 h
Protocol: as §1, §2, §3, §4, §5

[5] = system: MOLM-13 cells; test: Proliferation assay, MOLM-13 (CellTiter-Glo, 7 days); format: cell-based, human
Protocol: as §1, §2, §3, §4, §5

[6] = target: T1, hERG (Homo sapiens (Human), UniProt Q12809); test: hERG assay 1 (standard), SyncroPatch 384PE; format: cell-based; settings: CHO cells, room temperature, up to 40 uM
Protocol: Experiments were performed on the SyncroPatch 384PE (Nanion Technologies) high throughput patch clamp platform at room temperature and used medium resistance chips with 4 patch holes per site. hERG-expressing Chinese hamster ovary K1 (CHO) cell line was used in assay-ready format and kept in liquid nitrogen until use. 2 vials of cells (10×10^6 cells per vial) were thawed and added to 20 ml Hepes-buffered saline solution (HBSS). HBSS comprised 140 mM NaCl, 4 mM KCl, 10 mM HEPES and 5 mM Glucose (pH 7.4). The internal patch clamp solution was KF 120 mM, KCl 20 mM, HEPES 10 mM, EGTA 10 mM, and 25 μM Escin (pH 7.2). After the initial sealing process was complete, a seal enhancer solution comprising HBSS supplemented with 10 mM CaCl2 and 1 mM MgCl2 was applied to cells. The external solution was then exchanged (4 times) for external patch clamp solution comprising NaCl 80 mM, KCl 4 mM, HEPES 10 mM, CaCl2 2 mM, MgCl2 1 mM, glucose 5 mM, and NMDG 60 mM (pH7.4). All compounds were dispensed from initial 10 mM DMSO stocks. An industry standard +60/−40 mV voltage protocol was applied every 15 seconds. Compounds were tested in a 6-point cumulative assay (final DMSO concentration 0.33%), with a concentration range of 139 nM to 40 uM. Data were analyzed in Genedata Screener®. IC50 values were determined by plotting % inhibition versus log compound concentration and using a one site dose response model. Only wells that passed acceptance criteria for this platform were used in this analysis (30 MegaOhm seal resistance, Z prime >0.4 and current size >0.2 nA).

[7] = target: T1, hERG; test: hERG assay 2, QPatch II 48X, room temperature; format: cell-based; settings: hERG DUO cell line, top 200 μM
Protocol: Experiments were performed on the QPatch II 48X (Sophion Biosciences) high throughput patch clamp platform at room temperature and used single hole Qplates. hERG DUO cell line (BSys) was used. The internal patch clamp solution was KF 60 mM, KCl 70 mM, HEPES 10 mM, EGTA 10 mM, and 5 mM Mg ATP (pH7.2). After sealing and whole cell access was gained the external solution (NaCl 140 mM, KCl 4 mM, HEPES 10 mM, CaCl2 2 mM, MgCl2 1 mM, glucose 5 mM (pH 7.4) was applied twice to establish stable baseline currents. An industry standard +40/−40 mV voltage protocol was applied every 15 seconds. All compounds were tested in a 6-point cumulative assay (final DMSO concentration 0.4-2% depending on stock concentration of compounds). Compounds were dispensed from initial 10 mM or 50 mM DMSO stocks after which DMSO dilutions were undertaken with a top concentration of 200 μM tested. Solvent controls were run in all experiments in line with the DMSO % required. Only wells that passed acceptance criteria for this platform were used in this analysis (500 MegaOhm seal resistance and current size >0.2 nA). Analysis was completed in Prism Graphpad to complete a composite IC50, by plotting % inhibition versus log compound concentration and using a log(inhibitor) vs. response—Variable slope.

[8] = Caco-2 cell monolayers intrinsic permeation assay in the presence of efflux inhibitors; format: in vitro ADME; settings: Caco-2, with efflux inhibitors
Excerpt: Caco-2 cells were obtained from American Type Culture Collection (ATCC). HEPES, penicillin, streptomycin, bovine serum albumin (BSA) were obtained from Beijing Xinjingke Biotechnology Co, Ltd. Fetal bovine serum, Hank's balanced salt solution (HBSS) and non-essential amino acids (NEAA) were purchased from Gibco. Dulbecco's Modified Eagle's Medium (DMEM) was purchased from Corning and MES from Sigma. HTS Transwell-24 permeable supports were purchased from Corning. Zosuquidar and Ko-143 were obtained from MedChemExpress and Benzbromarone from Sigma.
The Caco-2 cell culture medium consisted of DMEM with high glucose and L-glutamine supplemented with 10% FBS, 0.1 mg/mL streptomycin, 100 units of penicillin, 0.6 mg/mL kanamycin sulfate and 1×NEAA. […] culture medium was added to each Transwell insert with 800 mL added to each well of the reservoir. After incubation at 37° C. in 5% CO2 for 1 hour, the plates were ready for seeding.
The cells were cultivated in T-75 flasks at 37° C., 5% CO2, 95% relative humidity. At 80 to 90% confluence, cells were treated with trypsin/EDTA treatment until they became detached. The trypsin/EDTA was inactivated by adding excess serum containing medium. The cell suspension was centrifuged at 120 g for 10 minutes followed by resuspension of the cell pellet in seeding medium at a cell density of 7.92×10^5 cells/mL.
[…] of the resulting cell suspension was added to each well of the Transwell plate and incubated for 14 to 18 days, with medium replaced every other day. After incubation for 14 to 18 days, the cells should have reached confluence and should be tested for electrical resistance using a Millicel Epithelial Volt-Ohm measuring system (Millipore).
The cell monolayers were washed twice with pre-warmed HBSS and incubated at 37° C. for 30 minutes under gentle shaking (480 rpm).
The compound under test was presented as a 10 mM DMSO stock solution. 2 mL of the 10 mM stock was added to 8 mL DMSO to produce a 2 mM stock. 2 mL was added to 398 mL of HBSS containing 10 mM Zosuquidar, 30 mM Benzbromarone and 2 mM KO-143 to make a […] solution.
210 mL of the test compound solution was added to the apical compartment of the Transwell plate, with a 10 mL sample taken to act as the time 0 sample. The wells of the receiver (basolateral) compartment were filled with 800 mL HBSS (containing the efflux inhibitors). The plates were incubated at 37° C. with shaking at 480 rpm for 120 minutes with sampling at 45 and 120 minutes.
At each sampling time (0, 45 and 120 minutes) 10 mL was removed from the apical compartment and add to 90 mL (HBSS containing the efflux inhibitors). 100 mL was removed from each basolateral compartment. 3 volumes of cold acetonitrile containing internal standard was added to each sample and vortex mixed for 10 minutes at 100 rpm. Samples were then centrifuged at 400 rpm for 20 minutes. 50 mL of the supernatant was taken for LC/MS/MS analysis to determine compound concentration.
The apparent permeability (Papp), in units of centimetre per second, were calculated for Caco-2 drug transport using the following equation: […]
Where CR is the concentration of compound in the receiver side at the respective time point, CD is the concentration of compound in the donor side at the respective timepoint. Area is the surface area of the membrane and time is 4500 seconds (75×60 seconds).

T1 sequence (Q12809 whole entry): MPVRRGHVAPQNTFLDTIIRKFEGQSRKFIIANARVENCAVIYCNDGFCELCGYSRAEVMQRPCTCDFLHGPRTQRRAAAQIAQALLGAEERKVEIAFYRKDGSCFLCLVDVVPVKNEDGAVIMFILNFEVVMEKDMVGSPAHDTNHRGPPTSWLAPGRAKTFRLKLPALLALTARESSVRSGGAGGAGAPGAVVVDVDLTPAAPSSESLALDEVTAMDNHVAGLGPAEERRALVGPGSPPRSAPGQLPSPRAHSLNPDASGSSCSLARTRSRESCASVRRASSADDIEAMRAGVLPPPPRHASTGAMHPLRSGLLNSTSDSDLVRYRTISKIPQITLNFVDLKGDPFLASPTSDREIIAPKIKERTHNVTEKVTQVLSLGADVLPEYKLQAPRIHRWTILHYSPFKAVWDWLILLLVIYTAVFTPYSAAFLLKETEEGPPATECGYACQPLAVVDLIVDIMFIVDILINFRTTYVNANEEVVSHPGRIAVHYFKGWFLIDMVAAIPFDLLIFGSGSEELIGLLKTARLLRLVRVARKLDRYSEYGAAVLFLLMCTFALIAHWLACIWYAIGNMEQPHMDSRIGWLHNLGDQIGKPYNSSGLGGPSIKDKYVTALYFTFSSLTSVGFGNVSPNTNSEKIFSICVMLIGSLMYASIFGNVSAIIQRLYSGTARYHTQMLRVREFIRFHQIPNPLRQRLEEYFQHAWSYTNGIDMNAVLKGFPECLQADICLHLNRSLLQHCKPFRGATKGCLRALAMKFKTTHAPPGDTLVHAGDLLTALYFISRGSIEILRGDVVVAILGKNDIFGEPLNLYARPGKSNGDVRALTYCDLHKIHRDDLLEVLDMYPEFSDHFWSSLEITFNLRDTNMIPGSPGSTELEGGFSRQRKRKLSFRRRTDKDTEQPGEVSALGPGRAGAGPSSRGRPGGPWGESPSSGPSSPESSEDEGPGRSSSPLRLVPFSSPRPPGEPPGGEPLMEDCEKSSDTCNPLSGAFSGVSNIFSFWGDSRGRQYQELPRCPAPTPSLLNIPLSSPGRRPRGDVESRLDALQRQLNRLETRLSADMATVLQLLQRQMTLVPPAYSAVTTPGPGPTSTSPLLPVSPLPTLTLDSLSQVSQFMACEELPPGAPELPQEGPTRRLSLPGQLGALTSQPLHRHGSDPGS

SMILES	IC50 [1]	microsomal CLint at 1 µM [2]	IC50 ([3]; Homo sapiens, MV4-11, 168 h)	IC50 [4]	IC50 ([5]; Homo sapiens, MOLM-13, 168 h)	HLM CLint ([2]; 1 mg/mL HLM, NADPH)	IC50 [6]	IC50 [3]	IC50 [5]	IC50 [7]	Papp A→B [8]
CC(C)c1ccccc1-c1cc(F)ccc1-n1cc(C(=O)C2CCN(C(=O)[C@H]3N[C@@H]4CC[C@H]3C4)CC2)c2ccncc21 [Example 39, (1-((1R,3S,4S)-2-Azabicyclo[2.2.1]heptane-3-carbonyl)piperidin-4-yl)(1-(5-fluoro-2′-isopropyl-[1,1′-biphenyl]-2-yl)-1H-pyrrolo[2,3-c]pyridin-3-yl)methanone]	0.047 µM	259 µL/min/mg	0.031 µM	6.9 µM	0.065 µM	–	–	–	–	–	–
CCN(C(=O)c1cc(F)ccc1-n1c(C)c(C(=O)C2CCN(C(=O)[C@@H]3CCC4(CC4)N3)CC2)c2ccncc21)C(C)C (single isomer, unassigned) [Example 49-1]	–	–	–	> 10 µM	–	>300 µL/min/mg	> 40 µM	2.95 µM	2.29 µM	> 200 µM	–
C[C@@H]1CC[C@H](C)N1C(=O)c1cc(F)ccc1-n1cc(C(=O)C2CCN(C(=O)[C@H]3N[C@@H]4CC[C@H]3C4)CC2)c2ccncc21 [Example 32, (1-((1R,3S,4S)-2-Azabicyclo[2.2.1]heptane-3-carbonyl)piperidin-4-yl)(1-(2-((2R,5S)-2,5-dimethylpyrrolidine-1-carbonyl)-4-fluorophenyl)-1H-pyrrolo[2,3-c]pyridin-3-yl)methanone]	0.275 µM	18 µL/min/mg	0.144 µM	> 10 µM	0.154 µM	–	–	–	–	–	0.4 ×10⁻⁶ cm/s
